The source of these data is US9914731B2, “Pyrazolo[1,5-a]pyridine derivatives and methods of their use” (Ignyta, Inc., priority 2013, dated 2018).

The first test concerns the target recombinant human baculovirus-expressed cMET (Homo sapiens (Human), UniProt P08581). As to the kind of experiment: c-MET kinase assay (HTRF KinEASE). Type of test: biochemical. The conditions noted are these: average of two or more determinations; read-out: c-MET IC50.
`CCn1cc(C(=O)Nc2ccc(Oc3cc(Nc4ncccn4)cn4nccc34)c(F)c2)c(=O)n(-c2ccc(F)cc2)c1=O` [Example 84, 1-Ethyl-3-(4-fluoro-phenyl)-2,4-dioxo-1,2,3,4-tetrahydro-pyrimidine-5-carboxylic acid{3-fluoro-4-[6-(pyrimidin-2-ylamino)-pyrazolo[1,5-a]pyridin-4-yloxy]-phenyl}-amide]: the IC50 was 10 to 100 nM.

In the case of `Cc1c(C(=O)Nc2ccc(Oc3cccn4nccc34)cc2)cnn1-c1ccc(F)cc1` [Example 18, 1-(4-Fluoro-phenyl)-5-methyl-1H-pyrazole-4-carboxylic acid [4-(pyrazolo[1,5-a]pyridin-4-yloxy)-phenyl]-amide], the IC50 lay within 1000 to 10000 nM.

As for `CCn1cc(C(=O)Nc2ccc(Oc3cc(C(=O)N(C)C)cn4nccc34)c(F)c2)c(=O)n(-c2ccc(F)cc2)c1=O` [Example 139, 4-(4-{[1-Ethyl-3-(4-fluoro-phenyl)-2,4-dioxo-1,2,3,4-tetrahydro-pyrimidine-5-carbonyl]-amino}-2-fluoro-phenoxy)-pyrazolo[1,5-a]pyridine-6-carboxylic acid dimethylamide], the IC50 was < 10 nM.

On to `CC(C)n1cc(C(=O)Nc2ccc(Oc3cc(Nc4ccccn4)cn4nccc34)c(F)c2)c(=O)n(-c2ccc(F)cc2)c1=O` [Example 87, 3-(4-Fluoro-phenyl)-1-isopropyl-2,4-dioxo-1,2,3,4-tetrahydro-pyrimidine-5-carboxylic acid{3-fluoro-4-[6-(pyridin-2-ylamino)-pyrazolo[1,5-a]pyridin-4-yloxy]-phenyl}-amide], for which the IC50 is 10 to 100 nM.

As for `CCOc1ccn(-c2ccc(F)cc2)c(=O)c1C(=O)Nc1ccc(Oc2cc(-c3cn(C)cn3)cn3nccc23)c(F)c1` [Example 112, 4-Ethoxy-1-(4-fluoro-phenyl)-2-oxo-1,2-dihydro-pyridine-3-carboxylic acid {3-fluoro-4-[6-(1-methyl-1H-imidazol-4-yl)-pyrazolo[1,5-a]pyridin-4-yloxy]-phenyl}-amide], the IC50 was < 10 nM.

On to `O=C(Nc1ccc(Oc2cc(-c3cncs3)cn3nccc23)c(F)c1)c1cccn(-c2ccc(F)cc2)c1=O` [Example 105, 1-(4-Fluoro-phenyl)-2-oxo-1,2-dihydro-pyridine-3-carboxylic acid[3-fluoro-4-(6-thiazol-5-yl-pyrazolo[1,5-a]pyridin-4-yloxy)-phenyl]-amide], for which the IC50 was < 10 nM.

For the compound `CC(C)n1cc(C(=O)Nc2ccc(Oc3cc(N4CCCC4=O)cn4nccc34)c(F)c2)c(=O)n(-c2ccc(F)cc2)c1=O` [Example 78, 3-(4-Fluoro-phenyl)-1-isopropyl-2,4-dioxo-1,2,3,4-tetrahydro-pyrimidine-5-carboxylic acid {3-fluoro-4-[6-(2-oxo-pyrrolidin-1-yl)-pyrazolo[1,5-a]pyridin-4-yloxy]-phenyl}-amide], the 50% inhibitory concentration (IC50) was < 10 nM.

As to `Cn1cc(-c2cc(Oc3ccc(NC(=O)c4cccn(-c5ccc(F)cc5)c4=O)cn3)c3ccnn3c2)cn1` [Example 89, 1-(4-Fluoro-phenyl)-2-oxo-1,2-dihydro-pyridine-3-carboxylic acid{6-[6-(1-methyl-1H-pyrazol-4-yl)-pyrazolo[1,5-a]pyridin-4-yloxy]-pyridin-3-yl}-amide], the IC50 was < 10 nM.

With `Cc1cccc(-c2cc(Oc3ccc(NC(=O)c4cn(C(C)C)c(=O)n(-c5ccc(F)cc5)c4=O)cc3F)c3ccnn3c2)n1` [Example 137, 3-(4-Fluoro-phenyl)-1-isopropyl-2,4-dioxo-1,2,3,4-tetrahydro-pyrimidine-5-carboxylic acid{3-fluoro-4-[6-(6-methyl-pyridin-2-yl)-pyrazolo[1,5-a]pyridin-4-yloxy]-phenyl}-amide], the IC50 was 10 to 100 nM.

Take `O=C(Nc1ccc(Oc2cccn3nccc23)cc1)c1cnn(-c2ccccc2)c1C(F)(F)F` [Example 19, 1-Phenyl-5-trifluoromethyl-1H-pyrazole-4-carboxylic acid [4-(pyrazolo[1,5-a]pyridin-4-yloxy)-phenyl]-amide]: the IC50 was in the range of 1000 to 10000 nM.

With `Cc1ccc(C(=O)Nc2ccc(Oc3cc(Br)cn4nccc34)c(F)c2)c(=O)n1-c1ccc(F)cc1` [Example 157, 1-(4-Fluoro-phenyl)-6-methyl-2-oxo-1,2-dihydro-pyridine-3-carboxylic acid [4-(6-bromo-pyrazolo[1,5-a]pyridin-4-yloxy)-3-fluoro-phenyl]-amide], the IC50 is 10 to 100 nM.

Take `CCn1cc(C(=O)Nc2ccc(Oc3cc(N4CCC(F)(F)C4)cn4nccc34)c(F)c2)c(=O)n(-c2ccc(F)cc2)c1=O` [Example 70, 1-Ethyl-3-(4-fluoro-phenyl)-2,4-dioxo-1,2,3,4-tetrahydro-pyrimidine-5-carboxylic acid{4-[6-(3,3-difluoro-pyrrolidin-1-yl)-pyrazolo[1,5-a]pyridin-4-yloxy]-3-fluoro-phenyl}-amide]: the IC50 fell in the range of 10 to 100 nM.

On to `CC(C)n1cc(C(=O)Nc2ccc(Oc3cc(-c4cn(C)cn4)cn4nccc34)c(OCc3ccccc3)c2)c(=O)n(-c2ccc(F)cc2)c1=O` [Example 121, 3-(4-Fluoro-phenyl)-1-isopropyl-2,4-dioxo-1,2,3,4-tetrahydro-pyrimidine-5-carboxylic acid {3-benzyloxy-4-[6-(1-methyl-1H-imidazol-4-yl)-pyrazolo[1,5-a]pyridine-4-yloxy]-phenyl}-amide], for which the IC50 fell in the range of 10 to 100 nM.

On to `CCn1cc(C(=O)Nc2ccc(Oc3cc(-c4cn(C)cn4)cn4nccc34)c(C)c2)c(=O)n(-c2ccc(F)cc2)c1=O` [Example 109, 1-Ethyl-3-(4-fluoro-phenyl)-2,4-dioxo-1,2,3,4-tetrahydro-pyrimidine-5-carboxylic acid{3-methyl-4-[6-(1-methyl-1H-imidazol-4-yl)-pyrazolo[1,5-a]pyridin-4-yloxy]-phenyl}-amide], for which the IC50 was < 10 nM.

Consider `CC(C)n1cc(C(=O)Nc2ccc(Oc3cc(-c4cn(C)cn4)cn4nccc34)c(C(F)(F)F)c2)c(=O)n(-c2ccc(F)cc2)c1=O` [Example 126, 3-(4-Fluoro-phenyl)-1-isopropyl-2,4-dioxo-1,2,3,4-tetrahydro-pyrimidine-5-carboxylic acid{4-[6-(1-methyl-1H-imidazol-4-yl)-pyrazolo[1,5-a]pyridin-4-yloxy]-3-trifluoromethyl-phenyl}-amide], for which the IC50 lay in the range of 10 to 100 nM.

Take `O=C(Nc1ccc(Oc2cccn3nccc23)c(F)c1)c1cccn(Cc2ccc(F)cc2)c1=O` [Example 8, 1-(4-Fluoro-benzyl)-2-oxo-1,2-dihydro-pyridine-3-carboxylic acid [3-fluoro-4-(pyrazolo[1,5-a]pyridin-4-yloxy)-phenyl]-amide]: the IC50 lay in the range of 101 to 1000 nM.

Turning to `Cc1ccc(C(=O)Nc2ccc(Oc3cc(-c4ncco4)cn4nccc34)c(F)c2)c(=O)n1-c1ccc(F)cc1` [Example 98, 1-(4-Fluoro-phenyl)-6-methyl-2-oxo-1,2-dihydro-pyridine-3-carboxylic acid [3-fluoro-4-(6-oxazol-2-yl-pyrazolo[1,5-a]pyridin-4-yloxy)-phenyl]-amide], the IC50 is < 10 nM.

As for `O=C(Nc1ccc(Oc2cccn3ncc(Cl)c23)c(F)c1)c1cccn(-c2ccc(F)cc2)c1=O` [Example 23, 1-(4-Fluoro-phenyl)-2-oxo-1,2-dihydro-pyridine-3-carboxylic acid [4-(3-chloro-pyrazolo[1,5-a]pyridin-4-yloxy)-3-fluoro-phenyl]-amide], the IC50 was in the range of 101 to 1000 nM.

With `CN1CCN(c2ccc(-c3cc(Oc4ccc(NC(=O)c5cccn(-c6ccc(F)cc6)c5=O)cc4F)c4ccnn4c3)cn2)CC1` [Example 37, 1-(4-Fluoro-phenyl)-2-oxo-1,2-dihydro-pyridine-3-carboxylic acid (3-fluoro-4-{6-[6-(4-methyl-piperazin-1-yl)-pyridin-3-yl]-pyrazolo[1,5-a]pyridin-4-yloxy}-phenyl)-amide], the IC50 is < 10 nM.

Take `O=C(Nc1ccc(Oc2cccn3nccc23)c(F)c1)c1c[nH]c(=O)n(-c2ccc(F)cc2)c1=O` [Example 11, 3-(4-Fluoro-phenyl)-2,4-dioxo-1,2,3,4-tetrahydro-pyrimidine-5-carboxylic acid [3-fluoro-4-(pyrazolo[1,5-a]pyridin-4-yloxy)-phenyl]-amide]: the IC50 lay in the range of 10 to 100 nM.

For the compound `CN1CCN(c2ccc(-c3cc(Oc4ccc(NC(=O)C5(C(=O)Nc6ccc(F)cc6)CC5)cc4F)c4ccnn4c3)cn2)CC1` [Example 36, Cyclopropane-1,1-dicarboxylic acid (3-fluoro-4-{6-[6-(4-methyl-piperazin-1-yl)-pyridin-3-yl]-pyrazolo[1,5-a]pyridin-4-yloxy}-phenyl)-amide (4-fluoro-phenyl)-amide], the IC50 is < 10 nM.

For the compound `CCOCCn1cc(C(=O)Nc2ccc(Oc3cc(N4CCOCC4)cn4nccc34)c(F)c2)c(=O)n(-c2ccc(F)cc2)c1=O` [Example 58, 1-(2-Ethoxy-ethyl)-3-(4-fluoro-phenyl)-2,4-dioxo-1,2,3,4-tetrahydro-pyrimidine-5-carboxylic acid [3-fluoro-4-(6-morpholin-4-yl-pyrazolo[1,5-a]pyridin-4-yloxy)-phenyl]-amide], the IC50 is 10 to 100 nM.

For the compound `Cc1ccc(C(=O)Nc2ccc(Oc3cc(C4CCS(=O)(=O)CC4)cn4nccc34)c(F)c2)c(=O)n1-c1ccc(F)cc1` [Example 50, 1-(4-Fluoro-phenyl)-6-methyl-2-oxo-1,2-dihydro-pyridine-3-carboxylic acid {4-[6-(1,1-dioxo-hexahydro-thiopyran-4-yl)-pyrazolo[1,5-a]pyridin-4-yloxy]-3-fluoro-phenyl}-amide], the IC50 was < 10 nM.

For `CCOc1ccn(-c2ccc(F)cc2)c(=O)c1C(=O)Nc1ccc(Oc2cccn3nccc23)c(F)c1` [Example 13, 4-Ethoxy-1-(4-fluoro-phenyl)-2-oxo-1,2-dihydro-pyridine-3-carboxylic acid [3-fluoro-4-(pyrazolo[1,5-a]pyridin-4-yloxy)-phenyl]-amide], the IC50 was < 10 nM.

Staying with this test, now noted: read-out: c-MET IC50.
With `COc1ccc(-c2cc(Oc3ccc(NC(=O)c4cccn(-c5ccc(F)cc5)c4=O)cc3F)c3ccnn3c2)cn1` [Example 35, 1-(4-Fluoro-phenyl)-2-oxo-1,2-dihydro-pyridine-3-carboxylic acid {3-fluoro-4-[6-(6-methoxy-pyridin-3-yl)-pyrazolo[1,5-a]pyridin-4-yloxy]-phenyl}-amide], the IC50 was < 10 nM.
